Patent US20110092484A1, “THERAPEUTIC OR PROPHYLACTIC AGENT FOR CEREBRAL ANEURYSM” (NIPPON CHEMIPHAR CO., LTD., priority 2007, published 2011)
Entries after “also recorded” stand apart in the source; their conditions may differ.

How the values were obtained:
cathepsin B [1] = biological target: cathepsin B (Homo sapiens, UniProt P07858); assay: Inhibition of cathepsin B (IC50); assay type: biochemical; conditions: read-out: IC 50 for cathepsin B
cathepsin S = cathepsin S (Homo sapiens, UniProt P25774); assay: Inhibition of cathepsin S (IC50); assay type: biochemical; conditions: read-out: IC 50 for cathepsin S
matrix metalloproteases = assay: Inhibition of other proteases; assay type: biochemical
[2] = test system: experimentally induced cerebral aneurysms; assay: Experimentally induced cerebral aneurysm model, histopathology of the ACA/OA bifurcation; assay type: in vivo, SD (Sprague-Dawley) rats
Description: After the induction of pentobarbital anesthesia (50 mg/kg), the left common carotid artery and posterior branches of the bilateral renal arteries were ligated at the same time with 10-0 nylon in 7 week-old male SD (Sprague-Dawley) rats. Animals were fed special food containing 8% sodium chloride and 0.12% β-aminopropionitrile (an inhibitor of lysyl oxidase that catalyzes the cross-linking of collagen and elastin). Blood pressure was measured by tail-cuff method. Animal care and experiments complied with Japanese community standards on the care and use of laboratory animals.
A total of 18 rats were orally given 50 mg/kg/day of the inhibitor. Immediately after aneurysm induction, rats were fed food with (n=18) or without (n=21) 50 mg/kg/day of the inhibitor, and sacrificed after three months. The ACA/OA bifurcation was stripped and observed under a light microscope after Elastica van Gieson staining. Early aneurysmal change refers to a lesion with the discontinuity of the internal elastic lamina without apparent outward bulging of the arterial wall. Advanced aneurysm refers to an obvious outward bulging of the arterial wall with the fragmentation or disappearance of the internal elastic lamina. After immunohistochemistry for CD68, the number of CD68-positive cells was counted on each section. Three independent researchers assessed the histopathological changes.
The values were expressed as means Standard deviation (SD). Statistical analysis was performed by using Student's t-test for a two-group comparison and one-way ANOVA followed by Fisher test for a multiple comparison. The incidence of aneurysmal changes was analyzed by the use of Fisher's exact test. Differences were considered statistically significant at P<0.05.

[3] = Serum concentration of the inhibitor in treated rats; assay type: in vivo; conditions: 50 mg/kg/day orally in food
CD68-positive cells = assay: Macrophage infiltration around aneurysms (CD68-positive cells counted); assay type: in vivo, rats; conditions: 50 mg/kg/day, n=10; control 5.3±1.5; did not differ
Description: Three months after aneurysm induction, all rats (n=10) were deeply anesthetized and perfused transcardinally with 4% paraformaldehyde. As a control, age-matched male Sprague-Dawley rats were euthanized as described above. The anterior cerebral artery/olfactory artery (ACA/OA) bifurcation was stripped, embedded and cut into 5 μm sections. After blocking with 5% Donkey serum, primary antibodies were incubated for one hour at room temperature followed by incubation with fluorescence labeled secondary antibodies for one hour at room temperature. The secondary antibodies were FITC-conjugated donkey anti-goat IgG antibody, FITC-conjugated donkey anti-rabbit IgG antibody, Cy3-conjugated donkey anti-mouse IgG antibody, and Cy3-conjugated donkey anti-rabbit IgG antibody. Then the slides were covered with PERMAFLUOR (Immunotec) and excited for fluorescence by illumination through a fluorescence microscope system (Olympus). […]
A total of 18 rats were orally given 50 mg/kg/day of the inhibitor. […] After immunohistochemistry for CD68, the number of CD68-positive cells was counted on each section. Three independent researchers assessed the histopathological changes.

cathepsin B [4] = biological target: T1, cathepsin B (Rattus norvegicus, UniProt P00787); assay: Cathepsin B activity in aneurysmal walls, azo-coupling method (in situ); assay type: in vivo; conditions: three months after aneurysm induction, treated rats
T1 construct: from tissue; host or cells: frozen sections of rat cerebral aneurysmal wall (Sprague-Dawley rats)
Description: In order to examine cathepsin B activity in aneurysmal walls, azo-coupling method (in situ) was performed. Three months after aneurysm induction, rats (n=6 in each group) were euthanized as described above. Five μm frozen sections were incubated for one hour at 37° C. with 3.2 mM Z-arg-arg-4-Methoxy-2-Naphthylamine (Cosmo Bio) in 100 mM potassium phosphate buffer containing 10% polyvinyl alcohol, 10 mM dithiothreitol, 2.7 mM L-Cysteine and 1.3 mM EDTA (Sigma). After then, the slides were placed in 125 mg/ml of N-ethylmaleimide in potassium phosphate buffer following at 55° C. for 5 minutes, followed by incubation with Fast Blue Solution (Fast Blue 21 mg/100 ml of potassium phosphate solution, Sigma) for thirty minutes and 0.1M cupric sulfate solution for 15 minutes at room temperature. After washing with physiological saline, the slides were covered with PERMAFLUOR (Immunotec).

collagenase I = assay: Collagenase activity in lysate of the whole Willis ring, type I collagen; assay type: in vivo; conditions: treated rats n=5, P=0.014
Description: (§1) One hundred fifty […] of protein was used in one experiment (n=5 in each group). Collagenase activity was measured using Collagenase Activity Measurement Kit (Life Laboratory). Briefly, fluorescence labeled type I or IV collagen was incubated with the lysate of the whole Willis ring for one hour at 37° C. Undigested fluorescence labeled collagen was extracted in ethanol solution and measured by fluorospectrometer with excitation 496 nm and measurement 520 nm. Collgenase activity (U/ml) was calculated by the fluorescence intensity according to the formula given in the manufacture's direction.

collagenase IV = assay: Collagenase activity in lysate of the whole Willis ring, type IV collagen; assay type: in vivo; conditions: treated rats n=5, P=0.044
Description: as §1

T1 sequence (P00787 80-333): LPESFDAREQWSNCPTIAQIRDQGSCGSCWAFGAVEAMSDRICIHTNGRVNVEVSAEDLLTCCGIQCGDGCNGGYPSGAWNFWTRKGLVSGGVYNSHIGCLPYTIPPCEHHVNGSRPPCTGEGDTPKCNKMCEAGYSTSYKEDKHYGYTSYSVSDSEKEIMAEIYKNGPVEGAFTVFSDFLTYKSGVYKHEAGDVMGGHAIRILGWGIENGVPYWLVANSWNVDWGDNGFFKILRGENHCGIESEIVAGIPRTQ
cathepsin S, sequence (P25774 115-331, species assumed): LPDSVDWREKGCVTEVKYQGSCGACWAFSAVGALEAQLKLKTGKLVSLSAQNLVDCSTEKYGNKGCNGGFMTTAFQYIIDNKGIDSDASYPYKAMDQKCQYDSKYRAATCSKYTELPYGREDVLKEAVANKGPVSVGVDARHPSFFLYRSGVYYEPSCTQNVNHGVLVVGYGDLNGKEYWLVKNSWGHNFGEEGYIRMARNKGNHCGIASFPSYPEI

For `CC(C)COC[C@H](CC(C)C)NC(=O)[C@H]1O[C@@H]1C(=O)O` [cysteine protease inhibitor, monosodium (2S,3S)-3-[[(1S)-1-isobutoxymethyl-3-methylbutyl]carbamoyl]-oxirane-2-carboxylate], the IC50 (cathepsin B [1]) was 284 nM, the IC50 (cathepsin S) was 186 nM and the “Inhibition of other proteases such as matrix metalloproteases” value (matrix metalloproteases) was “did not inhibit”. For the same molecule, the “Rats that developed advanced aneurysms” value ([2]; 50 mg/kg/day in food, three months after aneurysm induction, control 19 of 21) was 5 of 10, the “Rats that showed early aneurysmal changes” value ([2]; 50 mg/kg/day in food, three months after aneurysm induction, of 10 rats, control 2 of 21) was 4 rats and the “Incidence of all aneurysmal changes versus control group” value ([2]; 50 mg/kg/day, three months) was “not different”. For the same molecule, the “Rate (incidence) of advanced aneurysms versus control group” value ([2]; 50 mg/kg/day, three months, P=0.022) was “significantly lower; also recorded: dramatically reduced”, the Serum concentration [3] was 628.5 ± 22.3 nmol/L and the “Macrophage infiltration per 50 μm×50 μm field around aneurysms” value (CD68-positive cells) was 4.9±1.7 cells/field. For the same molecule, the “Cathepsin B activity at the aneurysmal walls versus untreated aneurysm rats” value (cathepsin B [4]) was “reduced”, the “Collagenase I activity versus control group” value (collagenase I) was “significantly lower” and the “Collagenase IV activity versus control group” value (collagenase IV) was “significantly lower”.
